Assay results published in US20250129018A1, “PLEUROMUTILIN DERIVATIVES CONTAINING CYCLOALKYL GROUP AND PREPARATION METHODS AND APPLICATIONS THEREOF” (priority 2023, published 2025).
≈ marks a conversion by molar mass, not a printed value. Where two headings read alike, the source gives them in different places.

How the values were obtained:
S. dysgalactiae-1 = assay: MIC, two-fold serial dilution method; assay type: cell-based, S. dysgalactiae equisimilis; settings: for MIC: Streptococcus dysgalactiae, read-out: minimum inhibitory concentration
Procedure: (§1) The pleuromutilin derivatives 1-4 prepared from Example 9 of the present disclosure were determined for their effect on Methicillin-resistant Staphylococcus aureus, Methicillin-resistant Staphylococcus epidermidis, standard strains of Staphylococcus aureus (S. aureus-29213 and S. aureus-25923), clinical strains 1-48 of S. aureus, Escherichia coli, S. agalactiae and S. dysgalactiae equisimilis (S. dysgalactiae-1, S. dysgalactiae-2, S. dysgalactiae-3) and minimum inhibitory concentration (MIC) using a two-fold serial dilution method, and the results were shown in Table 1, Table 2 and Table 3. The standard strains are commercially available from ATCC, and the clinical strains are preserved by Lanzhou Institute of Husbandry and Pharmaceutical Science of Chinese Academy of Agricultural Sciences (Lanzhou, Gansu, China).

S. dysgalactiae-2 = assay: MIC, two-fold serial dilution method; assay type: cell-based, S. dysgalactiae equisimilis; settings: for MIC: Streptococcus dysgalactiae, read-out: minimum inhibitory concentration
Procedure: as §1

S. dysgalactiae-3 = assay: MIC, two-fold serial dilution method; assay type: cell-based, S. dysgalactiae equisimilis; settings: for MIC: Streptococcus dysgalactiae, read-out: minimum inhibitory concentration
Procedure: as §1

S. aureus-28 = assay: MIC, clinical strain; assay type: cell-based, Staphylococcus aureus
Procedure: as §1

S. aureus-45 = assay: MIC, clinical strain; assay type: cell-based, Staphylococcus aureus
Procedure: as §1

S. aureus-44 = assay: MIC, clinical strain; assay type: cell-based, Staphylococcus aureus
Procedure: as §1

S. aureus-16 = assay: MIC, clinical strain; assay type: cell-based, Staphylococcus aureus
Procedure: as §1

S. aureus-38 = assay: MIC, clinical strain; assay type: cell-based, Staphylococcus aureus
Procedure: as §1

S. aureus-24 = assay: MIC, clinical strain; assay type: cell-based, Staphylococcus aureus
Procedure: as §1

S. aureus-12 = assay: MIC, clinical strain; assay type: cell-based, Staphylococcus aureus
Procedure: as §1

S. aureus-20 = assay: MIC, clinical strain; assay type: cell-based, Staphylococcus aureus
Procedure: as §1

S. aureus-43 = assay: MIC, clinical strain; assay type: cell-based, Staphylococcus aureus
Procedure: as §1

S. aureus-39 = assay: MIC, clinical strain; assay type: cell-based, Staphylococcus aureus
Procedure: as §1

S. aureus-36 = assay: MIC, clinical strain; assay type: cell-based, Staphylococcus aureus
Procedure: as §1

S. aureus-47 = assay: MIC, clinical strain; assay type: cell-based, Staphylococcus aureus
Procedure: as §1

S. aureus-37 = assay: MIC, clinical strain; assay type: cell-based, Staphylococcus aureus
Procedure: as §1

MRSA-337371 = assay: In vivo antimicrobial activity experiment in mice (systemic MRSA infection, survival); settings: for protection rate against systemic MRSA infection in mice: 20 mg/kg; for mortality rate / final survival rate: immunosuppressed mice infected i.p. with MRSA-337371; for final survival rate: end of observation
Procedure: First, an MRSA-337371 cryopreservation solution was taken out from a freezer set at −80° C. and the following steps were performed: • (1) 10 μL of the thawed MRSA-337371 cryopreservation solution was pipetted and added into 6 mL of Tryptic Soy Broth (TSB), and incubated until the bacterial solution had become turbid; • (2) a sterile inoculation loop was dipped into and picked up a small amount of the bacterial solution and was dragged on an MH agar medium for streaking, and then the MH agar medium was inverted and placed in a constant temperature incubator at 37° C. to incubate for 24 hours; • (3) a single colony on the MH agar medium was picked and inoculated in 30 mL of MH liquid medium with an inoculation loop, and placed in a constant temperature shaking incubator at 37° C. for 18 hours for later use. […]
6-week-old, about 20 g-weighted, SPF-grade healthy mice (one half male and the other female) were randomly divided into 5 groups, with 10 mice in each group (one half male and the other female), which were specifically divided into a positive control group (an MRSA infection group), a negative control group (a sterile normal saline control group, which was injected with only 10 mL/kg of drug solvent), drug control groups (a Tiamulin treatment group and a Valnemulin treatment group) and an experimental group (a derivative 2 treatment group). 100 mg/kg of cyclophosphamide was intraperitoneally injected to the mice 4 days before the experiment, and 150 mg/kg of cyclophosphamide injection was injected to the mice 1 day before the experiment to keep the mice in an immunosuppressed state. After fasting for 12 hours, except for the negative control group, the remaining 4 groups were intraperitoneally injected with 0.5 mL of 10^8 CFU/mL bacterial solution, and after 30 min, the drug control groups and the experimental group were intravenously injected with 20 mg/kg of the respective drug. The mice were continued to be reared, and observed to record the deaths daily.
Calculation of survival rate: During the experiment, the morbidity and the mortality in each group of mice was observed and recorded in detail every day, and the survival rate in each group of mice was calculated as:
Survival rate=Number of surviving animals/Number of experimental animals×100%

[1] = day 1, 20 mg/kg intravenously 30 min after infection

SMILES	in vitro minimum inhibitory concentration (S. aureus-28)	in vitro minimum inhibitory concentration (S. aureus-45)	in vitro minimum inhibitory concentration (S. aureus-44)	in vitro minimum inhibitory concentration (S. aureus-16)	in vitro minimum inhibitory concentration (S. aureus-38)	in vitro minimum inhibitory concentration (S. aureus-24)	in vitro minimum inhibitory concentration (S. aureus-12)	in vitro minimum inhibitory concentration (S. aureus-43)	in vitro minimum inhibitory concentration (S. aureus-39)	in vitro minimum inhibitory concentration (S. aureus-36)	in vitro minimum inhibitory concentration (S. aureus-47)	in vitro minimum inhibitory concentration (S. aureus-37)	protection rate against systemic MRSA infection in mice (MRSA-337371) [%]	mortality rate (MRSA-337371; [1]) [%]	mortality rate (MRSA-337371; day 2, 20 mg/kg intravenously) [%]	final survival rate (MRSA-337371; 20 mg/kg intravenously) [%]	in vitro minimum inhibitory concentration (S. aureus-20; in µg/mL)	further results
C=C[C@]1(C)C[C@@H](OC(=O)CSCCN(CC)CC)[C@]2(C)[C@H](C)CC[C@]3(CCC(=O)[C@H]32)[C@@H](C)[C@@H]1O [Tiamulin]	1	1	0.5	0.5	0.5	0.25	0.5	1	0.25	0.25	0.5	0.5	10	50	80	10	–	MIC (S. dysgalactiae-1; S. dysgalactiae-1): 0.25 µg/mL (≈ 0.506 µM); MIC (S. dysgalactiae-2; S. dysgalactiae-2): 0.25 µg/mL (≈ 0.506 µM); MIC (S. dysgalactiae-3; S. dysgalactiae-3): 0.25 µg/mL (≈ 0.506 µM); in vitro minimum inhibitory concentration (S. aureus-20): 0.5 µg/mL; mortality rate (MRSA-337371; day 3, 20 mg/kg intravenously): 90%
C=C[C@]1(C)C[C@@H](OC(=O)CSC(C)(C)CNC(=O)[C@H](N)C(C)C)[C@]2(C)[C@H](C)CC[C@]3(CCC(=O)[C@H]32)[C@@H](C)[C@@H]1O [Valnemulin]	0.063	0.25	0.063	0.063	0.063	0.063	0.031	0.063	0.125	0.063	0.063	0.063	20	30	80	20	0.125	MIC (S. dysgalactiae-1): 0.031 µg/mL (≈ 0.0549 µM); MIC (S. dysgalactiae-2): 0.031 µg/mL (≈ 0.0549 µM); MIC (S. dysgalactiae-3): 0.031 µg/mL (≈ 0.0549 µM)
C=CC1(C)CC(OC(=O)CSC(C)(C)CNC(=O)C2CCC2)C2(C)C(C)CCC3(CCC(=O)C32)C(C)C1O (centres unmarked) [derivative 2]	0.063	0.125	0.031	0.031	0.016	0.063	0.031	0.016	0.016	0.016	0.063	0.063	60	10	40	60	0.063	minimum inhibitory concentration (S. dysgalactiae-1; S. dysgalactiae-1): 0.031 µg/mL (≈ 0.0566 µM); minimum inhibitory concentration (S. dysgalactiae-2; S. dysgalactiae-2): 0.031 µg/mL (≈ 0.0566 µM); minimum inhibitory concentration (S. dysgalactiae-3; S. dysgalactiae-3): 0.031 µg/mL (≈ 0.0566 µM); treatment effect in mice (MRSA-337371; compared with marketed drugs): superior to the marketed Tiamulin and Valnemulin
